These results are taken from ChEMBL document CHEMBL4616668, “Discovery of a High Affinity, Orally Bioavailable Macrocyclic FXIa Inhibitor with Antithrombotic Activity in Preclinical Species” (J Med Chem, 2020).

Tested on in the first data set: not listed separately
Nature of the data set: Half life in rat liver microsomes. In kind it is ADME, Microsome. (In general: Liver microsomes are vesicles of endoplasmic reticulum, rich in cytochrome P450 enzymes.)
On to `COC(=O)Nc1ccc2c(c1)NC(=O)[C@H](C)CCC[C@H](N1CC[C@H](c3c(F)ccc(Cl)c3F)OC1=O)c1cncc-2c1`, for which the half-life (commonly the time needed for the level to fall by half in the phase considered) is 9 min.
Turning to `COC(=O)Nc1ccc2c(c1)NC(=O)[C@H](C)CCC[C@H](N1CCN(c3c(F)ccc(Cl)c3F)C(=O)C1=O)c1cc-2ccn1`, the half-life is 60 min.
The same measure, in the same setting: for `COC(=O)Nc1ccc2c(c1)NC(=O)[C@H](C)CCC[C@H](N1CCN(c3c(F)ccc(Cl)c3F)CC1=O)c1cc-2ccn1` the value was 9 min.

The subject of the next data set is Plasma. Nature of the data set: Anticoagulant activity in human plasma assessed as activated partial thromboplastin time. The format is functional.
On to `COC(=O)Nc1ccc2c(c1)NC(=O)[C@H](C)CCC[C@H](N1CC[C@H](c3c(F)ccc(Cl)c3F)OC1=O)c1cncc-2c1`, for which the EC1.5 was determined as 0.6 µM.
On the same count and under the same terms, for `COC(=O)Nc1ccc2c(c1)NC(=O)[C@H](C)CCC[C@H](N1CCN(c3c(F)ccc(Cl)c3F)C(=O)C1=O)c1cc-2ccn1` the value was 4.3 µM; for `COC(=O)Nc1ccc2c(c1)NC(=O)[C@H](C)CCC[C@H](N1CCN(c3c(F)ccc(Cl)c3F)CC1=O)c1cc-2ccn1`, 4.6 µM.

Tested on in a further data set: not listed separately
Nature of the data set: Half life in human liver microsomes. In kind it is ADME, Microsome.
Turning to `COC(=O)Nc1ccc2c(c1)NC(=O)[C@H](C)CCC[C@H](N1CC[C@H](c3c(F)ccc(Cl)c3F)OC1=O)c1cncc-2c1`, the half-life stood at 17 min.
Still for that read-out and setting: then `COC(=O)Nc1ccc2c(c1)NC(=O)[C@H](C)CCC[C@H](N1CCN(c3c(F)ccc(Cl)c3F)C(=O)C1=O)c1cc-2ccn1`, with 76 min.
`COC(=O)Nc1ccc2c(c1)NC(=O)[C@H](C)CCC[C@H](N1CCN(c3c(F)ccc(Cl)c3F)CC1=O)c1cc-2ccn1` gave a half-life of 4 min.

Tested on in the next data set: not listed separately
Put plainly: Half life in dog liver microsomes. The format is ADME, Canis lupus familiaris, Microsome.
Consider `COC(=O)Nc1ccc2c(c1)NC(=O)[C@H](C)CCC[C@H](N1CC[C@H](c3c(F)ccc(Cl)c3F)OC1=O)c1cncc-2c1`, for which the half-life worked out at 21 min.
Regarding `COC(=O)Nc1ccc2c(c1)NC(=O)[C@H](C)CCC[C@H](N1CCN(c3c(F)ccc(Cl)c3F)C(=O)C1=O)c1cc-2ccn1`, the half-life was 64 min.
Compound `COC(=O)Nc1ccc2c(c1)NC(=O)[C@H](C)CCC[C@H](N1CCN(c3c(F)ccc(Cl)c3F)CC1=O)c1cc-2ccn1` registered a half-life of 6 min.

For a further data set, the target named is Coagulation factor XI (Homo sapiens, UniProt P03951). Put plainly: Inhibition of human factor11a using pyro-Glu-Pro-Arg-pNA(para-nitroaniline) substrate by spectrophotometry.
Sequence of Coagulation factor XI (P03951 19-387 limits assumed): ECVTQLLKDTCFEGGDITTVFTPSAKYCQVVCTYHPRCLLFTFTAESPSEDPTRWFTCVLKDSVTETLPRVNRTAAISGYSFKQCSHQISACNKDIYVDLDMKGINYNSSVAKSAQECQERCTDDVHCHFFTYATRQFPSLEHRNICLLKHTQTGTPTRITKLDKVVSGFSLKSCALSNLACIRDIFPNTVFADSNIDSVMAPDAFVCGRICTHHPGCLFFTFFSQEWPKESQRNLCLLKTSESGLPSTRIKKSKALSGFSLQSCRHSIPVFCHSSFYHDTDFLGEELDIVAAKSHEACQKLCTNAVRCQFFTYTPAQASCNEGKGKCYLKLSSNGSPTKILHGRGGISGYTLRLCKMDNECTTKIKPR
Sequence of Coagulation factor XI (P03951 388-625 limits assumed): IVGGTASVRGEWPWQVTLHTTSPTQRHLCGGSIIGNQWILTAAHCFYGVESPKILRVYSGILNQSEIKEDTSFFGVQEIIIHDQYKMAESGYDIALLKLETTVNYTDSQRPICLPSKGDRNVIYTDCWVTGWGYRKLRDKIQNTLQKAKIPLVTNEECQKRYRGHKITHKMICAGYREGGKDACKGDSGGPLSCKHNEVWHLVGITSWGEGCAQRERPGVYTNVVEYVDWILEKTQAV
Turning to `COC(=O)Nc1ccc2c(c1)NC(=O)[C@H](C)CCC[C@H](N1CC[C@H](c3c(F)ccc(Cl)c3F)OC1=O)c1cncc-2c1`, affinity was put at a Ki of 1.8 nM.
Regarding `COC(=O)Nc1ccc2c(c1)NC(=O)[C@H](C)CCC[C@H](N1CCN(c3c(F)ccc(Cl)c3F)C(=O)C1=O)c1cc-2ccn1`, the Ki (commonly a dissociation constant, usually derived from enzyme kinetics or from competition with a known ligand) came to 14 nM.
The compound `COC(=O)Nc1ccc2c(c1)NC(=O)[C@H](C)CCC[C@H](N1CCN(c3c(F)ccc(Cl)c3F)CC1=O)c1cc-2ccn1` showed an inhibition constant (Ki) of 4.5 nM.

Tested on in a further data set: not listed separately
Nature of the data set: Half life in cynomolgus monkey liver microsomes. The format is ADME, Macaca fascicularis, Microsome.
On to `COC(=O)Nc1ccc2c(c1)NC(=O)[C@H](C)CCC[C@H](N1CC[C@H](c3c(F)ccc(Cl)c3F)OC1=O)c1cncc-2c1`, for which the half-life came out at 2 min.
As for `COC(=O)Nc1ccc2c(c1)NC(=O)[C@H](C)CCC[C@H](N1CCN(c3c(F)ccc(Cl)c3F)C(=O)C1=O)c1cc-2ccn1`, the half-life came out at 80 min.
Still for that read-out and setting: then `COC(=O)Nc1ccc2c(c1)NC(=O)[C@H](C)CCC[C@H](N1CCN(c3c(F)ccc(Cl)c3F)CC1=O)c1cc-2ccn1`, with 1 min.
